In the supplement of paper PMC13380429:
± gives the standard deviation of the averaged measurements.

Key:
Conditions in all cases: 72 h
[1] = tested on: Calu-3; experiment: drug sensitivity score (DSS) for viability; higher = more toxic; extreme values may be limits of the assay
[2] = tested on: Caco-2; experiment: as above
[3] = tested on: U2OS; experiment: as above
[4] = tested on: HepG2; experiment: as above
[5] = tested on: Vero E6; experiment: as above
[6] = tested on: Calu-3; experiment: cell viability relative to DMSO; higher = less toxic
[7] = tested on: Caco-2; experiment: as above
[8] = tested on: U2OS; experiment: as above
[9] = tested on: HepG2; experiment: as above
[10] = tested on: Vero E6; experiment: as above
[11] = tested on: Calu-3; experiment: relative viability EC50 (midpoint between 100% and the lowest measured viability); higher = less toxic
[12] = tested on: Caco-2; experiment: as above
[13] = tested on: U2OS; experiment: as above
[14] = tested on: HepG2; experiment: as above
[15] = tested on: Vero E6; experiment: as above

| Structure (SMILES) | drug sensitivity score [1] | drug sensitivity score [2] | drug sensitivity score [3] | drug sensitivity score [4] | drug sensitivity score [5] | cell viability ([6]; 1 nM) [%] | cell viability ([6]; 10 nM) [%] | cell viability ([6]; 100 nM) [%] | cell viability ([6]; 1000 nM) [%] | cell viability ([6]; 10000 nM) [%] | cell viability ([7]; 1 nM) [%] | cell viability ([7]; 10 nM) [%] | cell viability ([7]; 100 nM) [%] | cell viability ([7]; 1000 nM) [%] | cell viability ([7]; 10000 nM) [%] | cell viability ([8]; 1 nM) [%] | cell viability ([8]; 10 nM) [%] | cell viability ([8]; 100 nM) [%] | cell viability ([8]; 1000 nM) [%] | cell viability ([8]; 10000 nM) [%] | cell viability ([9]; 1 nM) [%] | cell viability ([9]; 10 nM) [%] | cell viability ([9]; 100 nM) [%] | cell viability ([9]; 1000 nM) [%] | cell viability ([9]; 10000 nM) [%] | cell viability ([10]; 1 nM) [%] | cell viability ([10]; 10 nM) [%] | cell viability ([10]; 100 nM) [%] | cell viability ([10]; 1000 nM) [%] | cell viability ([10]; 10000 nM) [%] | relative viability EC50 [11] [µM] | relative viability EC50 [12] [µM] | relative viability EC50 [13] [µM] | relative viability EC50 [14] [µM] | relative viability EC50 [15] [µM] |
| --- | --- | --- | --- | --- | --- | --- | --- | --- | --- | --- | --- | --- | --- | --- | --- | --- | --- | --- | --- | --- | --- | --- | --- | --- | --- | --- | --- | --- | --- | --- | --- | --- | --- | --- | --- |
| O=C(c1ccc(F)cc1)N1CCC[C@H](c2nc(-c3ccc(F)cc3)no2)C1 | 1.2 | 0 | 0 | 0 | 0 | 90 | 100 | 85.3 | 98.2 | 75.5 | 101 | 94.3 | 91.8 | 99.7 | 87.9 | 94 | 101 | 99.9 | 98.8 | 91.7 | 93.7 | 99.4 | 93 | 96 | 91.1 | 98.3 | 93.5 | 94.7 | 93.9 | 95.5 | > 10 | > 10 | > 10 | > 10 | > 10 |
| O=C1C(=C(O)/C=C/c2ccc(O)cc2)C(=O)[C@@](O)([C@@H]2O[C@H](CO)[C@@H](O)[C@H](O)[C@H]2O)C(=O)[C@H]1[C@@H]1O[C@H](CO)[C@@H](O)[C@H](O)[C@H]1O | 0 | 0 | 0 | 0 | 0 | 103 | 97.6 | 102 | 101 | 97.9 | 102 | 91.2 | 93.1 | 93.3 | 95.8 | 101 | 97.8 | 95 | 99.3 | 98.6 | 102 | 97.2 | 104 | 102 | 106 | 101 | 98.1 | 98.5 | 95.8 | 98.5 | > 10 | > 10 | > 10 | > 10 | > 10 |
| c1ccc(CN2CCC3(CCc4ccccc43)CC2)cc1 | 0 | 0 | 0 | 0 | 0 | 99.6 | 98.5 | 108 | 95.4 | 96.5 | 96.9 | 97.5 | 99 | 93 | 89.6 | 102 | 102 | 101 | 99.6 | 99.6 | 95.1 | 101 | 91.9 | 106 | 102 | 97.1 | 97 | 92.8 | 94.4 | 104 | > 10 | > 10 | > 10 | > 10 | > 10 |
| N[C@@H](C(=O)O)c1ccc(C(=O)O)c(C(=O)O)c1 (racemic) [3,4-DCPG-(+/-)] | 0 | 0 | 0 | 0 | 0 | 93.4 ± 4.4 | 99.8 ± 2.7 | 95.7 ± 3.2 | 93 ± 1.3 | 95.3 ± 1.3 | 101 ± 5.2 | 94.9 ± 2.8 | 103 ± 3.2 | 96.6 ± 9.6 | 97.4 ± 2.9 | 99.5 ± 2.4 | 95.4 ± 0.42 | 103 | 97.6 ± 3.8 | 100 ± 3.4 | 88.3 ± 15 | 99.2 ± 3.1 | 89.5 ± 20 | 102 ± 6.3 | 97.7 ± 20 | 96.8 ± 6 | 101 ± 3.4 | 96 ± 2.5 | 100 ± 3.2 | 105 ± 4.1 | > 10 | > 10 | > 10 | > 10 | > 10 |
| O[C@@H](CN1CCC(Cc2ccc(F)cc2)CC1)c1ccc(Cl)cc1 (racemic) [eliprodil] | 0 | 0 | 0 | 0 | 0 | 99.2 | 95.2 | 106 | 92.3 | 104 | 100 | 96.2 | 101 | 103 | 104 | 91.1 | 93.3 | 87.3 | 87.9 | 97.6 | 96.6 | 99.7 | 97.8 | 87.6 | 108 | 98.8 | 92 | 98.8 | 98.1 | 105 | > 10 | > 10 | > 10 | > 10 | > 10 |
| CCCN1CCCC(c2cccc(O)c2)C1 (stereo in doubt) [preclamol] | 0 | 0 | 0 | 0 | 0 | 110 | 110 | 112 | 93.5 | 99.6 | 107 | 94.9 | 106 | 93.1 | 99.6 | 102 | 103 | 102 | 99.1 | 101 | 95.6 | 110 | 107 | 112 | 99.6 | 90.5 | 99.2 | 95.1 | 98.3 | 91.8 | > 10 | > 10 | > 10 | > 10 | > 10 |
| C[N+]1(C)CCC(OC(=O)C(c2ccccc2)c2ccccc2)CC1 [4-DAMP] | 0 | 0 | 0 | 0 | 0 | 85.8 | 87.6 | 92.9 | 101 | 100 | 105 | 96.3 | 106 | 102 | 87.4 | 103 | 97.7 | 99.2 | 97.7 | 99.5 | 90.8 | 97 | 103 | 100 | 90.9 | 98.5 | 99.8 | 99 | 97.4 | 96 | > 10 | > 10 | > 10 | > 10 | > 10 |
| NCC(=O)CCC(=O)O [5-aminolevulinic-acid] | 0 | 1.1 | 0 | 0 | 0 | 96.9 | 104 | 105 | 104 | 104 | 100 | 103 | 98.9 | 86.2 | 94 | 104 | 96.9 | 99 | 94.6 | 95.3 | 91.4 | 99 | 92.1 | 104 | 104 | 93.7 | 94 | 91.7 | 91.3 | 97.8 | > 10 | > 10 | > 10 | > 10 | > 10 |
| CCCCCCCCC(=O)NCc1cc(OC)c(O)cc1I [6-iodo-nordihydrocapsaicin] | 0 | 0.1 | 0 | 0 | 0 | 104 | 98.6 | 108 | 109 | 104 | 97.9 | 101 | 103 | 97.7 | 88.6 | 97.4 | 98 | 101 | 96.6 | 92.5 | 96.6 | 110 | 95.6 | 104 | 103 | 88.5 | 99.4 | 92.2 | 92.5 | 104 | > 10 | > 10 | > 10 | > 10 | > 10 |
| CCN(CC)C(=O)c1ccc(C2=CC3(CCNCC3)Oc3cccc(O)c32)cc1 [ADL5859] | 0 | 0 | 0 | 0 | 0 | 92.9 | 96.9 | 91.8 | 105 | 105 | 93 | 99.8 | 91.9 | 97.3 | 110 | 95.4 | 98.2 | 100 | 103 | 104 | 103 | 99.5 | 104 | 100 | 101 | 94.1 | 104 | 94.9 | 98.5 | 108 | > 10 | > 10 | > 10 | > 10 | > 10 |
| Oc1c(I)cc(I)cc1I [AM-24] | 0 | 0 | 0 | 0 | 0 | 96.7 | 95 | 104 | 97.3 | 101 | 99.5 | 97.6 | 93 | 88.5 | 101 | 97.8 | 97.8 | 103 | 97.7 | 104 | 95.4 | 103 | 89.9 | 108 | 102 | 96.8 | 103 | 99.6 | 104 | 97.2 | > 10 | > 10 | > 10 | > 10 | > 10 |
| O=C(Nc1ccc2c(O)cc(S(=O)(=O)O)cc2c1)Nc1ccc2c(O)cc(S(=O)(=O)O)cc2c1 [AMI-1] | 0 | 0 | 0 | 0 | 0 | 104 | 100 | 100 | 109 | 99.8 | 87 | 97.8 | 92.8 | 93.5 | 97.2 | 103 | 102 | 99 | 102 | 101 | 101 | 110 | 106 | 107 | 94.3 | 97.2 | 102 | 102 | 106 | 96 | > 10 | > 10 | > 10 | > 10 | > 10 |
| C[C@@]1(CO)[C@H](O)CC[C@@]2(C)[C@H]1CC[C@H]1C[C@@H]3C[C@@]12CC[C@]3(O)CO [aphidicolin] | 2.1 | 6.8 | 0.8 | 10.6 | 5.1 | 111 | 100 | 110 | 87.3 | 77.7 | 100 | 100 | 80 | 79.2 | 72 | 106 | 104 | 101 | 98.7 | 79.4 | 100 | 100 | 91.3 | 50.5 | 22.5 | 106 | 109 | 100 | 90.7 | 35.8 | > 10 |  | > 10 | 0.608 | 2.02 |
| CCCc1cc(C(N)=S)ccn1 [protionamide] | 0 | 5.7 | 0 | 0 | 0 | 96.2 | 100 | 88.9 | 107 | 92.4 | 94.4 | 80.4 | 93.8 | 73.7 | 68.3 | 104 | 107 | 98.6 | 96 | 96.4 | 108 | 105 | 95.9 | 103 | 95.3 | 102 | 98.6 | 93.3 | 101 | 91.6 | > 10 |  | > 10 | > 10 | > 10 |
| OC(CCN1CCCCC1)(c1ccccc1)C1CCCCC1 (configuration not stated) [trihexyphenidyl] | 0.5 | 1.7 | 0 | 0.3 | 0.5 | 102 | 98.9 | 96.7 | 90.7 | 85.6 | 101 | 100 | 95.5 | 94.6 | 74.7 | 96.9 | 103 | 101 | 98.1 | 97.8 | 101 | 87.7 | 100 | 93.2 | 83.4 | 103 | 106 | 112 | 98.9 | 83.1 | > 10 |  | > 10 | > 10 | > 10 |
